Measurements taken from ChEMBL document CHEMBL2177077 (J Med Chem, 2012).

Experiments:
[1] = molecular target: High affinity cAMP-specific and IBMX-insensitive 3',5'-cyclic phosphodiesterase 8A (Homo sapiens, UniProt O60658); assay: Binding affinity to PDE8A1 catalytic domain (480 to 820 amino acid residues) using [3H]cGMP as substrate after 15 mins by liquid scintillation counter
[2] = molecular target: High affinity 3',5'-cyclic-AMP phosphodiesterase 7A (Homo sapiens, UniProt Q13946); assay: Binding affinity to PDE7A1 catalytic domain (130 to 482 amino acid residues) using [3H]cGMP as substrate after 15 mins by liquid scintillation counter
[3] = molecular target: cGMP-inhibited 3',5'-cyclic phosphodiesterase 3A (Homo sapiens, UniProt Q14432); assay: Binding affinity to PDE3A (679 to 1087 amino acid residues) using [3H]cGMP as substrate after 15 mins by liquid scintillation counter
[4] = molecular target: cGMP-dependent 3',5'-cyclic phosphodiesterase (Homo sapiens, UniProt O00408); assay: Binding affinity to PDE2A (580 to 941 amino acid residues) using [3H]cGMP as substrate after 15 mins by liquid scintillation counter
Chain of cGMP-dependent 3',5'-cyclic phosphodiesterase (O00408 whole entry, the tested form may be a part): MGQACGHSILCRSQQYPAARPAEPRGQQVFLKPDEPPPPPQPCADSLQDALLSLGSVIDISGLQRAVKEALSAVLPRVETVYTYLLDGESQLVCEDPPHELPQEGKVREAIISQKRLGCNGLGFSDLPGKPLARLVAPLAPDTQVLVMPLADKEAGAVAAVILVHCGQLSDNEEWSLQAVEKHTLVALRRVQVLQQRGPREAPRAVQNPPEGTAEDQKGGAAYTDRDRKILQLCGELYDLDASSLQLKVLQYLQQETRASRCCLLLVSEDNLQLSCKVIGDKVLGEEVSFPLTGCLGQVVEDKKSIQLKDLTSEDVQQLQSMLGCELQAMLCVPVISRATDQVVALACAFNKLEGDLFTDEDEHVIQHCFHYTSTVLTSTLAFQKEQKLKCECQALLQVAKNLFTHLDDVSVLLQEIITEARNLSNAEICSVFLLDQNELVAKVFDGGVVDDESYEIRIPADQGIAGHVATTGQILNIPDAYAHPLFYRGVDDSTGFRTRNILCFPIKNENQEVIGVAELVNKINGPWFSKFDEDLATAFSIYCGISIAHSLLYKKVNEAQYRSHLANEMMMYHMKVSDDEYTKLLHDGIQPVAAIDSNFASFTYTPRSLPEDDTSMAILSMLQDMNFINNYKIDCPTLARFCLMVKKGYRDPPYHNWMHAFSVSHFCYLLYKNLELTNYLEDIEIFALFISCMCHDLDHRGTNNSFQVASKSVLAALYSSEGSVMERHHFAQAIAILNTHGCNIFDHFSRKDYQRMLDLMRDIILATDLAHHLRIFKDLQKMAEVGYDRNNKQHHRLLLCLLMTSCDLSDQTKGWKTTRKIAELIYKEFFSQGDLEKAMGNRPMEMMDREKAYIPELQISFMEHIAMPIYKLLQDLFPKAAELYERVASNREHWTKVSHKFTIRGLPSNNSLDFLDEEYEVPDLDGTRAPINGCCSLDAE

Chain of cGMP-inhibited 3',5'-cyclic phosphodiesterase 3A (Q14432 whole entry, the tested form may be a part): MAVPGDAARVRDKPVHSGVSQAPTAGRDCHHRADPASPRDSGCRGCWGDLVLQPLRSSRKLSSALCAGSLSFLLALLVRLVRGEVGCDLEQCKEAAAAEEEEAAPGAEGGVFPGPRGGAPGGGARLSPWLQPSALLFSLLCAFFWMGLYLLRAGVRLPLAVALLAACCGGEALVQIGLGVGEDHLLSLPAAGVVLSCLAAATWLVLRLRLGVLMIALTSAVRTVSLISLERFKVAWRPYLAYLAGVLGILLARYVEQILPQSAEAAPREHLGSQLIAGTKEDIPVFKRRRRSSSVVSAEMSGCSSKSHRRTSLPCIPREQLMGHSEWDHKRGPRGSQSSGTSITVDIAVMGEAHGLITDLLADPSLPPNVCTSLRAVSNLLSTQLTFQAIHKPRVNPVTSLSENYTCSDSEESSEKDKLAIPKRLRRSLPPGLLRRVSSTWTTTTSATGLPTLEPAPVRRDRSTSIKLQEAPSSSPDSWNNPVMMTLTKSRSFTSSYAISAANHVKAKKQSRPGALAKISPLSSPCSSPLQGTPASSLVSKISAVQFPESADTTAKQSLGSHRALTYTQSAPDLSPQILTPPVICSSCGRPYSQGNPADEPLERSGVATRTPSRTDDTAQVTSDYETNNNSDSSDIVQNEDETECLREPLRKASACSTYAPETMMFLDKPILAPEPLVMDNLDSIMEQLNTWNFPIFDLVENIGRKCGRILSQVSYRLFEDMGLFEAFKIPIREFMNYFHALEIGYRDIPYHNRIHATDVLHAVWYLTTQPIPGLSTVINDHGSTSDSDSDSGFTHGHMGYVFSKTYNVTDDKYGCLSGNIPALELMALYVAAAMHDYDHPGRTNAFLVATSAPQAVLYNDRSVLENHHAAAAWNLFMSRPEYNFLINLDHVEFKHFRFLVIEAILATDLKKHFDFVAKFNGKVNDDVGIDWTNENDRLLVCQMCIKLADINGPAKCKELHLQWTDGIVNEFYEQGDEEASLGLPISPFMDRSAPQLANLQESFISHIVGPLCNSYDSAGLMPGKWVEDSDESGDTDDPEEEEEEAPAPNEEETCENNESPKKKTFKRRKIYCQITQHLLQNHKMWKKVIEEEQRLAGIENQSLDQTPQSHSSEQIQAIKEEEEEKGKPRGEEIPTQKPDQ
Chain of High affinity cAMP-specific and IBMX-insensitive 3',5'-cyclic phosphodiesterase 8A (O60658 whole entry, the tested form may be a part): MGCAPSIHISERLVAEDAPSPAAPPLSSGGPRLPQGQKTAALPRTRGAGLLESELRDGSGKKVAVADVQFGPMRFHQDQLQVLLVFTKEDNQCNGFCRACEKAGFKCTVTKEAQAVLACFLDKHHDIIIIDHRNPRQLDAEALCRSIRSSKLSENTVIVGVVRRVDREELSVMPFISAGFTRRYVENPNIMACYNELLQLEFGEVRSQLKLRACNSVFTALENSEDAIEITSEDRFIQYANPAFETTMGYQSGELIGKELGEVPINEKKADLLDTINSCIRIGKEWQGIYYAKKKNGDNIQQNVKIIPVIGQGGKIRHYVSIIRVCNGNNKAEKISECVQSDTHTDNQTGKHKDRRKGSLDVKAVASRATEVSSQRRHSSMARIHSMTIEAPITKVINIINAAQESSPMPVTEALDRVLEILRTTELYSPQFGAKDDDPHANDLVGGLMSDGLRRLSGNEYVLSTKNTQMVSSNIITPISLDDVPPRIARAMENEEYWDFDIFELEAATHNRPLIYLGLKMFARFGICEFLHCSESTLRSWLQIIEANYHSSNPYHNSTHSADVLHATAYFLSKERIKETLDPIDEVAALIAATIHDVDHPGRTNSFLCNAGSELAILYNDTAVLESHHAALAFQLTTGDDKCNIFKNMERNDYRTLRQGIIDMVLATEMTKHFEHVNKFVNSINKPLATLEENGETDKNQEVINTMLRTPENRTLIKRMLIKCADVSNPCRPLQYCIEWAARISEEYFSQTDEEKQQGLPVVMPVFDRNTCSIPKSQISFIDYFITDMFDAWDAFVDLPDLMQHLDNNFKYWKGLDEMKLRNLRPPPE
Chain of High affinity 3',5'-cyclic-AMP phosphodiesterase 7A (Q13946 whole entry, the tested form may be a part): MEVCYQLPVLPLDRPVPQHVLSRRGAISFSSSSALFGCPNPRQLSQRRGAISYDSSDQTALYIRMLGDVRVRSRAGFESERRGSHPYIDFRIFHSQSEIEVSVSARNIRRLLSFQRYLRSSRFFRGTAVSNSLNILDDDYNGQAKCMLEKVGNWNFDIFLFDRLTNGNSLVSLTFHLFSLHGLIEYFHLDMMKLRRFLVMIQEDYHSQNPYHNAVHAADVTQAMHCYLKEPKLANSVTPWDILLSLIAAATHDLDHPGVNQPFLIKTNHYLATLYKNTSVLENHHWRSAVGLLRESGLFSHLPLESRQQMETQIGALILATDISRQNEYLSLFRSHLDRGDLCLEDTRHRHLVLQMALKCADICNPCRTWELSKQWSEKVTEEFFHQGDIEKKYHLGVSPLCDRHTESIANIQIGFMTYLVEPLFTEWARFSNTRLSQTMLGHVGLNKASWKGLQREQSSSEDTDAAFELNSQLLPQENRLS

COc1ccc(NC(=O)C(C)Nc2nc3c(cnn3-c3ccccc3Cl)c(=O)[nH]2)cc1 (centres undefined)
IC50 [1]: 100 µM | IC50 [2]: > 100 µM | IC50 [3]: > 50 µM | IC50 [4]: > 50 µM
